The conditions of series [1]: human gut metagenome, 24 h, 2 µM.
For series [2] the following is noted: human gut metagenome, 24 h, 2 µM. The source holds these as a separate data set.
Series [3] can be described thus: The drug is tested on Z-023 corresponding to metagenome with ENA study accession number: PRJEB37062 and ENA sample accession number: ERS12561822 for biotransformation under anaerobic condition. The drug concentrations were measured over 9 timepoints collected between 0 and 24 hours of incubation by liquid-chromatography-coupled mass spectrometry (LC–MS). Particulars: 2 µM.

Series [4] is described as follows: The drug is tested on WLS-073 corresponding to human gut metagenome with ENA study accession number: PRJEB37062 and ENA sample accession number: ERS12561749 for biotransformation under anaerobic condition. The drug concentrations were measured over 9 timepoints collected between 0 and 24 hours of incubation by liquid-chromatography-coupled mass spectrometry (LC–MS). To be noted: 2 µM.

For series [5] the following is noted: human gut metagenome, 24 h, 2 µM. This is another data set of the same source.
For series [6] the following is noted: human gut metagenome, 24 h, 2 µM. This is another data set of the same source.
Series [7] is described as follows: The drug is tested on Z-026 corresponding to metagenome with ENA study accession number: PRJEB37062 and ENA sample accession number: ERS12561825 for biotransformation under anaerobic condition. The drug concentrations were measured over 9 timepoints collected between 0 and 24 hours of incubation by liquid-chromatography-coupled mass spectrometry (LC–MS). To be noted: 2 µM.

The conditions of series [8]: human gut metagenome, 24 h, 2 µM. The source holds these as a separate data set.
The nature of series [9]: The drug is tested on Z-012 corresponding to metagenome with ENA study accession number: PRJEB37062 and ENA sample accession number: ERS12561812 for biotransformation under anaerobic condition. The drug concentrations were measured over 9 timepoints collected between 0 and 24 hours of incubation by liquid-chromatography-coupled mass spectrometry (LC–MS). To be noted: 2 µM.

Series [10] can be described thus: The drug is tested on WLS-082 corresponding to human gut metagenome with ENA study accession number: PRJEB37062 and ENA sample accession number: ERS12561751 for biotransformation under anaerobic condition. The drug concentrations were measured over 9 timepoints collected between 0 and 24 hours of incubation by liquid-chromatography-coupled mass spectrometry (LC–MS). To be noted: 2 µM.

For series [11] the following is noted: human gut metagenome, 24 h, 2 µM. The source holds these as a separate data set.
The nature of series [12]: The drug is tested on WLS-077 corresponding to human gut metagenome with ENA study accession number: PRJEB37062 and ENA sample accession number: ERS12561750 for biotransformation under anaerobic condition. The drug concentrations were measured over 9 timepoints collected between 0 and 24 hours of incubation by liquid-chromatography-coupled mass spectrometry (LC–MS). Particulars: 2 µM.

Series [13] in a line: The drug is tested on WLS-220 corresponding to human gut metagenome with ENA study accession number: PRJEB37062 and ENA sample accession number: ERS12561769 for biotransformation under anaerobic condition. The drug concentrations were measured over 9 timepoints collected between 0 and 24 hours of incubation by liquid-chromatography-coupled mass spectrometry (LC–MS). Particulars: 2 µM.

The conditions of series [14]: human gut metagenome, 24 h, 2 µM. This is another data set of the same source.
For series [15] the following is noted: human gut metagenome, 24 h, 2 µM. This is another data set of the same source.
Series [16] in a line: The drug is tested on Z-025 corresponding to rabbit gut metagenome with ENA study accession number: PRJEB37062 and ENA sample accession number: ERS12561824 for biotransformation under anaerobic condition. The drug concentrations were measured over 9 timepoints collected between 0 and 24 hours of incubation by liquid-chromatography-coupled mass spectrometry (LC–MS). Particulars: 2 µM.

For series [17] the following is noted: human gut metagenome, 24 h, 2 µM. The source holds these as a separate data set.
The conditions of series [18]: human gut metagenome, 24 h, 2 µM. The source holds these as a separate data set.
For series [19] the following is noted: human gut metagenome, 24 h, 2 µM. The source holds these as a separate data set.
The conditions of series [20]: human gut metagenome, 24 h, 2 µM. This is another data set of the same source.
Also: call rule not given here.

Regarding `CN1CCC(=C2c3ccccc3CC(=O)c3sccc32)CC1.O=C(O)/C=C/C(=O)O` [KETOTIFEN FUMARATE], the “Bacterial Biotransformation” value in [1] is “Compound NOT metabolized”; in series [2], “Compound metabolized”; in series [3] it was “Compound NOT metabolized”; in series [4], “Compound metabolized”; in series [5] it was “Compound metabolized”; in series [6] it was “Compound metabolized”. Also, the “Bacterial Biotransformation” value was “Compound NOT metabolized” in [7]; “Compound metabolized” in series [8]; “Compound NOT metabolized” in [9]; “Compound NOT metabolized” in series [10]; “Compound NOT metabolized” in [11]; “Compound NOT metabolized” in [12]. For the same molecule, the “Bacterial Biotransformation” value was “Compound metabolized” in series [13]; “Compound NOT metabolized” in series [14]; “Compound NOT metabolized” in series [15]; “Compound NOT metabolized” in series [16]; “Compound metabolized” in [17]; “Compound NOT metabolized” in series [18]. The “Bacterial Biotransformation” value in series [19] and in [20] was “Compound metabolized” throughout.

As for `CC[C@H](C)C(=O)O[C@H]1CCC=C2C=C[C@H](C)[C@H](CC[C@@H]3C[C@@H](O)CC(=O)O3)[C@H]21` [MEVASTATIN], the “Bacterial Biotransformation” value in series [1] is “Compound NOT metabolized”; in [2] it was “Compound metabolized”; in series [3], “Compound metabolized”; in series [4] it was “Compound NOT metabolized”; in [5] it was “Compound metabolized”; in [6] it was “Compound metabolized”. Further, the “Bacterial Biotransformation” value in [7] is given as “Compound metabolized”; in [8], “Compound metabolized”; in series [9] it was “Compound NOT metabolized”; in [10], “Compound metabolized”; in series [11], “Compound metabolized”; in [12] it was “Compound NOT metabolized”. Besides, the “Bacterial Biotransformation” value in series [13] was “Compound metabolized”; in series [14], “Compound metabolized”; in series [15] it was “Compound NOT metabolized”; in [16], “Compound metabolized”; in [17] it was “Compound metabolized”; in [18], “Compound NOT metabolized”. Besides, the “Bacterial Biotransformation” value in [19] and in [20] was “Compound metabolized” in each case.

Regarding `COc1ccc2cc([C@H](C)C(=O)O)ccc2c1` [NAPROXEN], the “Bacterial Biotransformation” value in series [1] is on record as “Compound NOT metabolized”; in series [2] it was “Compound metabolized”; in series [3] it was “Compound NOT metabolized”; in series [4] it was “Compound NOT metabolized”; in [5], “Compound metabolized”; in series [6], “Compound metabolized”. Further, the “Bacterial Biotransformation” value in series [7] is given as “Compound NOT metabolized”; in [8], “Compound metabolized”; in series [9], “Compound NOT metabolized”; in series [10], “Compound metabolized”; in series [11], “Compound metabolized”; in series [12], “Compound NOT metabolized”. Further, the “Bacterial Biotransformation” value in series [13] is on record as “Compound metabolized”; in series [14], “Compound metabolized”; in series [15], “Compound NOT metabolized”; in [16], “Compound NOT metabolized”; in [17] it was “Compound metabolized”; in series [18], “Compound metabolized”. For the same molecule, the “Bacterial Biotransformation” value in [19] and in [20] was “Compound metabolized” throughout.

For the molecule `C#C[C@]1(OC(C)=O)CC[C@H]2[C@@H]3CCC4=C/C(=N/O)CC[C@@H]4[C@H]3CC[C@@]21CC` [NORGESTIMATE], the “Bacterial Biotransformation” value in series [1] is on record as “Compound NOT metabolized”; in [2] it was “Compound metabolized”; in series [3], “Compound NOT metabolized”; in [4], “Compound metabolized”; in series [5], “Compound metabolized”; in series [6], “Compound NOT metabolized”. Moreover, the “Bacterial Biotransformation” value in series [7] is given as “Compound NOT metabolized”; in [8], “Compound NOT metabolized”; in [9], “Compound NOT metabolized”; in series [10] it was “Compound metabolized”; in series [11], “Compound NOT metabolized”; in [12], “Compound metabolized”. For the same molecule, the “Bacterial Biotransformation” value in series [13] is listed as “Compound metabolized”; in series [14], “Compound NOT metabolized”; in series [15], “Compound metabolized”; in [16] it was “Compound NOT metabolized”; in series [17], “Compound metabolized”; in series [18] it was “Compound NOT metabolized”. In addition, the “Bacterial Biotransformation” value in series [19] and in [20] was “Compound metabolized” each time.

As for `COc1ccnc(C[S+]([O-])c2nc3ccc(OC(F)F)cc3[nH]2)c1OC` (stereo not given) [PANTOPRAZOLE], the “Bacterial Biotransformation” value in series [1], in series [2], in [3], in [4], in series [5] and in series [6] was “Compound metabolized” in each case. Also, the “Bacterial Biotransformation” value in [7], in series [8], in series [9], in series [10], in series [11] and in series [12] was “Compound metabolized” in each case. In addition, the “Bacterial Biotransformation” value in [13] is given as “Compound metabolized”; in [14] it was “Compound metabolized”; in series [15] it was “Compound metabolized”; in series [16], “Compound metabolized”; in [17] it was “Compound metabolized”; in [18], “Compound NOT metabolized”. For the same molecule, the “Bacterial Biotransformation” value in [19] and in [20] was “Compound metabolized” throughout.

With `O=C1N=C([O-])NC1(c1ccccc1)c1ccccc1.[Na+]` [PHENYTOIN SODIUM], the “Bacterial Biotransformation” value in series [1] was “Compound NOT metabolized”; in series [2] it was “Compound metabolized”; in series [3], “Compound NOT metabolized”; in series [4] it was “Compound NOT metabolized”; in series [5], “Compound metabolized”; in [6], “Compound metabolized”. Also, the “Bacterial Biotransformation” value in [7] is recorded as “Compound NOT metabolized”; in series [8] it was “Compound NOT metabolized”; in series [9] it was “Compound NOT metabolized”; in [10] it was “Compound metabolized”; in series [11], “Compound NOT metabolized”; in [12] it was “Compound NOT metabolized”. Moreover, the “Bacterial Biotransformation” value in series [13] is recorded as “Compound metabolized”; in series [14] it was “Compound NOT metabolized”; in [15], “Compound NOT metabolized”; in series [16], “Compound NOT metabolized”; in [17], “Compound metabolized”; in series [18] it was “Compound NOT metabolized”. In addition, the “Bacterial Biotransformation” value in [19] and in series [20] was “Compound metabolized” in each case.

The record behind these values is ChEMBL document CHEMBL5724914, “Linking interpersonal differences in gut microbiota composition and drug biotransformation activity” (2024).
